What was measured:
Test in all cases: Bliss excess, mean over the matrix (fraction); higher = more synergy
[1] = test system: CHSA8926 (Chondrosarcoma)
Outline: (§1)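 After 24 hours at 37°C and 5% CO2 in 1536-well plates, cells in DMEM/F12 or RPMI plus 10% FBS received two-drug dose matrices for 72 hours. Viability came from CellTiter-Glo 2.0 luminescence and was scaled as inhibition, anchored at 0 by vehicle wells and at 1 by blank wells. Combination Emax is taken as the second-highest inhibition in the matrix, and Bliss excess as the observed combination effect less EA + EB − EA·EB, with EA and EB the single-agent effects.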

[2] = test system: PC-3 (Prostate Carcinoma)
Outline: as §1

[3] = test system: VMRC-RCZ (Kidney Carcinoma)
Outline: as §1

[4] = test system: ST486 (Burkitt's Lymphoma)
Outline: as §1

[5] = test system: CW-2 (Colorectal Carcinoma)
Outline: as §1

[6] = test system: MN-60 (B-Lymphoblastic Leukemia)
Outline: as §1

[7] = test system: SUP-B15 (B-Lymphoblastic Leukemia)
Outline: as §1

[8] = test system: HCC1187 (Breast Carcinoma)
Outline: as §1

[9] = test system: HCC1419 (Breast Carcinoma)
Outline: as §1

[10] = test system: KU812 (Chronic Myelogenous Leukemia)
Outline: as §1

[11] = test system: DAN-G (Pancreatic Carcinoma)
Outline: as §1

[12] = test system: MOG-G-CCM (Low Grade Glioma)
Outline: as §1

[13] = test system: NCI-H526 (Small Cell Lung Carcinoma)
Outline: as §1

[14] = test system: NCI-H3122 (Lung Adenocarcinoma)
Outline: as §1

[15] = test system: DMS-114 (Small Cell Lung Carcinoma)
Outline: as §1

[16] = test system: SK-GT-4 (Esophageal Adenocarcinoma)
Outline: as §1

[17] = test system: NCCIT (Other Solid Carcinomas)
Outline: as §1

[18] = test system: H9 (T-Cell Non-Hodgkin's Lymphoma)
Outline: as §1

RD (Rhabdomyosarcoma) = test system: RD (Rhabdomyosarcoma)
Outline: as §1

[19] = test system: KYSE-270 (Esophageal Squamous Cell Carcinoma)
Outline: as §1

Cc1c2c(nn1C)CSCc1cc(n(C)n1)CSc1cc(c3ccccc3c1)OCCCc1c(C(=O)O)n(C)c3c-2c(Cl)ccc13 [AZD5991] + C[C@@H](Nc1cc(F)cc(F)c1)c1cc(C(=O)N(C)C)cc2c(=O)cc(N3CCOCC3)oc12 [AZD8186] (first compound max 1 µM, 7x7, partner max 3 µM)
Bliss excess [1]: 0.091 | Bliss excess [2]: 0.0051 | Bliss excess [3]: 0.0141 | Bliss excess [4]: -0.0659 | Bliss excess [5]: 0.0051 | Bliss excess [6]: -0.0454 | Bliss excess [7]: -0.0091 | Bliss excess [8]: -0.0176 | Bliss excess [9]: -0.0038 | Bliss excess [10]: -0.0554 | Bliss excess [11]: 0.0051 | Bliss excess [12]: -0.0316 | Bliss excess [13]: 0.0192 | Bliss excess [14]: -0.0639 | Bliss excess [15]: -0.0338 | Bliss excess [16]: -0.0185 | Bliss excess [17]: -0.0176 | Bliss excess [18]: -0.0485 | Bliss excess (RD (Rhabdomyosarcoma)): 0.0195 | Bliss excess [19]: 0.027

Cc1c2c(nn1C)CSCc1cc(n(C)n1)CSc1cc(c3ccccc3c1)OCCCc1c(C(=O)O)n(C)c3c-2c(Cl)ccc13 [AZD5991] + Cn1cnc2c(F)c(Nc3ccc(Br)cc3Cl)c(C(=O)NOCCO)cc21 [Selumetinib] (first compound max 1 µM, 7x7, partner max 3 µM)
Bliss excess [1]: -0.0772 | Bliss excess [2]: -0.0029 | Bliss excess [3]: -0.0777 | Bliss excess [4]: 0.07 | Bliss excess [5]: 0.0226 | Bliss excess [6]: -0.0125 | Bliss excess [7]: 0.0806 | Bliss excess [8]: -0.0139 | Bliss excess [9]: 0.0366 | Bliss excess [10]: 0.0224 | Bliss excess [11]: 0.0588 | Bliss excess [12]: -0.0241 | Bliss excess [13]: 0.0123 | Bliss excess [14]: -0.0255 | Bliss excess [15]: -0.0317 | Bliss excess [16]: -0.0385 | Bliss excess [17]: 0.0003 | Bliss excess [18]: 0.0145 | Bliss excess (RD (Rhabdomyosarcoma)): 0.039 | Bliss excess [19]: 0.0409

C[C@@H]1COCCN1c1cc(C2([S@](C)(=N)=O)CC2)nc(-c2ccnc3[nH]ccc23)n1 [AZD6738] + O=C(c1cc(Cc2n[nH]c(=O)c3ccccc23)ccc1F)N1CCN(C(=O)C2CC2)CC1 [Olaparib] (first compound max 10 µM, 7x7, partner max 10 µM)
Bliss excess [1]: 0.01 | Bliss excess [2]: -0.0095 | Bliss excess [3]: 0.0181 | Bliss excess [4]: -0.0026 | Bliss excess [5]: 0.0008 | Bliss excess [6]: -0.042 | Bliss excess [7]: -0.0608 | Bliss excess [8]: 0.0586 | Bliss excess [9]: -0.0175 | Bliss excess [10]: -0.0429 | Bliss excess [11]: -0.0051 | Bliss excess [12]: 0.0005 | Bliss excess [13]: -0.0072 | Bliss excess [14]: 0.0446 | Bliss excess [15]: 0.0254 | Bliss excess [16]: -0.046 | Bliss excess [17]: 0.0227 | Bliss excess [18]: 0.0058 | Bliss excess (RD (Rhabdomyosarcoma)): 0.0312 | Bliss excess [19]: -0.013

Cc1cc2ncnn2cc1Nc1ncc2c(n1)n(C1CCOCC1)c(=O)n2C [AZD7648] + C=CCn1c(=O)c2cnc(Nc3ccc(N4CCN(C)CC4)cc3)nc2n1-c1cccc(C(C)(C)O)n1 [AZD1775] (first compound max 10 µM, partner max 1 µM)
Bliss excess [1]: 0.0382 | Bliss excess [2]: -0.0415 | Bliss excess [3]: 0.0117 | Bliss excess [4]: -0.0316 | Bliss excess [5]: 0.0419 | Bliss excess [6]: -0.0316 | Bliss excess [7]: 0.0174 | Bliss excess [8]: 0.0302 | Bliss excess [9]: -0.0156 | Bliss excess [10]: 0.0177 | Bliss excess [11]: -0.0686 | Bliss excess [12]: -0.0309 | Bliss excess [13]: 0.013 | Bliss excess [14]: -0.0402 | Bliss excess [15]: -0.0151 | Bliss excess [16]: -0.0515 | Bliss excess [17]: 0.0237 | Bliss excess [18]: 0.0346 | Bliss excess (RD (Rhabdomyosarcoma)): -0.0168 | Bliss excess [19]: 0.0028

Cc1cc2ncnn2cc1Nc1ncc2c(n1)n(C1CCOCC1)c(=O)n2C [AZD7648] + CCN(CCO)CCCOc1ccc2c(Nc3cc(CC(=O)Nc4cccc(F)c4)[nH]n3)ncnc2c1 [AZD2811] (first compound max 10 µM, 7x7, partner max 1 µM)
Bliss excess [1]: -0.0331 | Bliss excess [2]: -0.0346 | Bliss excess [3]: 0.0038 | Bliss excess [4]: -0.0697 | Bliss excess [5]: -0.0089 | Bliss excess [6]: -0.0061 | Bliss excess [7]: -0.0667 | Bliss excess [8]: -0.0446 | Bliss excess [9]: -0.0264 | Bliss excess [10]: 0.0578 | Bliss excess [11]: 0.0271 | Bliss excess [12]: 0.0246 | Bliss excess [13]: 0.0568 | Bliss excess [14]: 0.0558 | Bliss excess [15]: 0.0309 | Bliss excess [16]: -0.0041 | Bliss excess [17]: 0.0781 | Bliss excess [18]: -0.0378 | Bliss excess (RD (Rhabdomyosarcoma)): -0.0243 | Bliss excess [19]: 0.0332

Cc1cc2ncnn2cc1Nc1ncc2c(n1)n(C1CCOCC1)c(=O)n2C [AZD7648] + CN(C)CCCOc1ccc(-c2ccc3ncc4c(c3c2)n(C2CCOCC2)c(=O)n4C)cn1 [AZD0156] (first compound max 10 µM, 7x7, partner max 1 µM)
Bliss excess [1]: 0.0091 | Bliss excess [2]: 0.0109 | Bliss excess [3]: -0.0314 | Bliss excess [4]: -0.0071 | Bliss excess [5]: -0.0088 | Bliss excess [6]: -0.0405 | Bliss excess [7]: -0.0084 | Bliss excess [8]: -0.0086 | Bliss excess [9]: -0.0515 | Bliss excess [10]: 0.0197 | Bliss excess [11]: -0.0168 | Bliss excess [12]: -0.0609 | Bliss excess [13]: 0.0429 | Bliss excess [14]: -0.006 | Bliss excess [15]: -0.0268 | Bliss excess [16]: -0.0406 | Bliss excess [17]: -0.0105 | Bliss excess [18]: 0.0458 | Bliss excess (RD (Rhabdomyosarcoma)): -0.0142 | Bliss excess [19]: -0.0004

Cc1cc2ncnn2cc1Nc1ncc2c(n1)n(C1CCOCC1)c(=O)n2C [AZD7648] + C[C@@H]1COCCN1C2=NC(=NC(=C2)C3(CC3)[S@](=N)(=O)C)C4=C5C=CNC5=NC=C4 [AZD6738] (first compound max 10 µM, 7x7, partner max 10 µM)
Bliss excess [1]: -0.0325 | Bliss excess [2]: -0.0161 | Bliss excess [3]: 0.0115 | Bliss excess [4]: 0.0077 | Bliss excess [5]: 0.0297 | Bliss excess [6]: -0.0135 | Bliss excess [7]: -0.0159 | Bliss excess [8]: 0.0005 | Bliss excess [9]: -0.0221 | Bliss excess [10]: 0.0087 | Bliss excess [11]: -0.0093 | Bliss excess [12]: -0.062 | Bliss excess [13]: 0.0174 | Bliss excess [14]: 0.038 | Bliss excess [15]: -0.0072 | Bliss excess [16]: 0.0068 | Bliss excess [17]: 0.0116 | Bliss excess [18]: -0.0034 | Bliss excess (RD (Rhabdomyosarcoma)): 0.0425 | Bliss excess [19]: 0.0008

Cc1cc2ncnn2cc1Nc1ncc2c(n1)n(C1CCOCC1)c(=O)n2C [AZD7648] + O=C(c1cc(Cc2n[nH]c(=O)c3ccccc23)ccc1F)N1CCN(C(=O)C2CC2)CC1 [Olaparib] (first compound max 10 µM, 7x7, partner max 10 µM)
Bliss excess [1]: -0.0511 | Bliss excess [2]: -0.0263 | Bliss excess [3]: -0.0546 | Bliss excess [4]: 0.0048 | Bliss excess [5]: -0.0201 | Bliss excess [6]: -0.0115 | Bliss excess [7]: 0.0239 | Bliss excess [8]: -0.0092 | Bliss excess [9]: -0.066 | Bliss excess [10]: -0.0425 | Bliss excess [11]: -0.0568 | Bliss excess [12]: -0.0269 | Bliss excess [13]: -0.0129 | Bliss excess [14]: -0.0505 | Bliss excess [15]: -0.0092 | Bliss excess [16]: -0.0258 | Bliss excess [17]: -0.0112 | Bliss excess [18]: -0.0049 | Bliss excess (RD (Rhabdomyosarcoma)): -0.0508 | Bliss excess [19]: -0.034

From the supplement of paper PMC11061612
